Literature values in patent US20130071326A1, “UNIVERSAL CELL-DIRECTED THERANOSTICS” (Board of Regents of the University of Texas System, priority 2010, published 2013).

System: tumor
Settings: conventional DOX treatments, at best

## COc1cccc2c1C(=O)c1c(O)c3c(c(O)c1C2=O)C[C@@](O)(C(=O)CO)C[C@@H]3O[C@H]1C[C@H](N)[C@H](O)[C@H](C)O1 [DOX, doxorubicin]
  accumulation of the drug at the tumor: 0.8 to 5 µg
